The values that follow are results of earlier work, collected in PMC8175309, “Translational CNS Steady-State Drug Disposition Model in Rats, Monkeys, and Humans for Quantitative Prediction of Brain-to-Plasma and Cerebrospinal Fluid-to-Plasma Unbound Concentration Ratios” (The AAPS Journal, 2021).

Like-named read-outs stand apart in the source and are kept apart here.

The conditions of data set [1]: cited from earlier work.
The conditions of data set [2]: cited from earlier work. This is another data set of the same source.

`CNCCC(Oc1ccc(C(F)(F)F)cc1)c1ccccc1` (stereo not shown) [Fluoxetine]: in data set [1] (*3 ref Summerfield et al. (25)), the “Kp,uu,brain Rat” value is 2.143. Moreover, the “Kp,uu,brain Human” value in data set [2] (*3 ref Summerfield et al. (25)) is listed as 0.53.

Take `O=C1NC(=O)C(c2ccccc2)(c2ccccc2)N1` [Phenytoin]: the figures for the “Kp,uu,brain Rat” value in data set [1] (*3 ref Summerfield et al. (25)) and in data set [1] (*7 ref Kodaira et al. (20)) were 0.316 and 0.447, respectively. In data set [1] (in vivo), the “Kp,uu,CSF Rat” value was 0.396. Also, the “Kp,uu,brain Human” value in data set [2] (*3 ref Summerfield et al. (25)) is listed as 0.59.

As for `CN1CC[C@]23c4c5ccc(O)c4O[C@H]2C(=O)CC[C@@]3(O)[C@H]1C5` [Oxymorphone], in data set [1] (*4 ref Friden et al. (21)), the “Kp,uu,CSF Rat” value is 0.91 and the “Kp,uu,brain Rat” value is listed as 0.790.

`O=C1CN(/N=C/c2ccc([N+](=O)[O-])o2)C(=O)N1` [Nitrofurantoin]: in data set [1] (*4 ref Friden et al. (21)), the “Kp,uu,CSF Rat” value was 0.0099 and the “Kp,uu,brain Rat” value is recorded as 0.011.

Consider `CN1CCN2c3ncccc3Cc3ccccc3C2C1` (stereo not shown) [Mirtazapine], for which the “Kp,uu,brain Rat” value in data set [1] (*3 ref Summerfield et al. (25)) was 1.611. Further, the “Kp,uu,brain Human” value in data set [2] (*3 ref Summerfield et al. (25)) is given as 0.79.

With `CN1CC[C@]23c4c5ccc(O[C@@H]6O[C@H](C(=O)O)[C@@H](O)[C@H](O)[C@H]6O)c4O[C@H]2[C@@H](O)C=C[C@H]3[C@H]1C5` [M3G], in data set [1] (*4 ref Friden et al. (21)), the “Kp,uu,CSF Rat” value was 0.049 and the “Kp,uu,brain Rat” value is 0.011. In data set [2] (*4 ref Friden et al. (21)), the “Kp,uu,CSF Human” value is listed as 0.081.

`CN(C)CCCC1(c2ccc(F)cc2)OCc2cc(C#N)ccc21` (stereo not shown) [Citalopram]: the “Kp,uu,brain Rat” value in data set [1] (*3 ref Summerfield et al. (25)) is recorded as 0.623. Also, in data set [1] (*7 ref Kodaira et al. (20)), the “Kp,uu,CSF Rat” value was 0.667 and the “Kp,uu,brain Rat” value is 0.494. For the same molecule, the “Kp,uu,brain Human” value in data set [2] (*3 ref Summerfield et al. (25)) is recorded as 0.347.

Take `C=CCOc1ccccc1OCC(O)CNC(C)C` (stereo not shown) [Oxprenolol]: in data set [1] (*4 ref Friden et al. (21)), the “Kp,uu,CSF Rat” value is listed as 0.1 and the “Kp,uu,brain Rat” value was 0.200.

For the molecule `CN1CC[C@]23c4c5ccc(O)c4O[C@H]2[C@@H](O[C@@H]2O[C@H](C(=O)O)[C@@H](O)[C@H](O)[C@H]2O)C=C[C@H]3[C@H]1C5` [M6G], in data set [1] (*4 ref Friden et al. (21)), the “Kp,uu,CSF Rat” value is reported as 0.017 and the “Kp,uu,brain Rat” value is 0.008. In data set [2] (*4 ref Friden et al. (21)), the “Kp,uu,CSF Human” value was 0.1.

Take `CN(C)CCC=C1c2ccccc2CCc2ccccc21` [Amitriptyline]: in data set [1] (*4 ref Friden et al. (21)), the “Kp,uu,CSF Rat” value was 0.17. Besides, the “Kp,uu,CSF Human” value in data set [2] (*4 ref Friden et al. (21)) is listed as 0.18.

As for `CCn1cc(C(=O)O)c(=O)c2cc(F)c(N3CCNCC3)cc21` [Norfloxacin], in data set [1] (*4 ref Friden et al. (21)), the “Kp,uu,CSF Rat” value is on record as 0.018 and the “Kp,uu,brain Rat” value is listed as 0.028. The “Kp,uu,CSF Human” value in data set [2] (*4 ref Friden et al. (21)) is listed as 0.11.

Consider `CCC(C(N)=O)(C(N)=O)c1ccccc1` [Ethyl-phenylmalonamide], for which, in data set [1] (*4 ref Friden et al. (21)), the “Kp,uu,CSF Rat” value is 1.4 and the “Kp,uu,brain Rat” value is on record as 1.250.

Turning to `CSc1ccc2c(c1)N(CCC1CCCCN1C)c1ccccc1S2` (stereo not shown) [Thioridazine], the “Kp,uu,brain Rat” value in data set [1] (*3 ref Summerfield et al. (25)) is listed as 1.425. Moreover, in data set [1] (*4 ref Friden et al. (21)), the “Kp,uu,CSF Rat” value is 0.21 and the “Kp,uu,brain Rat” value is recorded as 0.45. Also, in data set [2] (*4 ref Friden et al. (21)), the “Kp,uu,CSF Human” value is listed as 1.4.

For `CO[C@@]1(NC(=O)C(C(=O)O)c2ccc(O)cc2)C(=O)N2C(C(=O)O)=C(CSc3nnnn3C)CO[C@@H]21` (stereo partly shown) [Moxalactam], in data set [1] (*4 ref Friden et al. (21)), the “Kp,uu,CSF Rat” value is given as 0.02 and the “Kp,uu,brain Rat” value was 0.019. Also, the “Kp,uu,CSF Human” value in data set [2] (*4 ref Friden et al. (21)) is on record as 0.41.

Turning to `O=C(O)c1ccccc1O` [Salicylic acid], in data set [1] (*4 ref Friden et al. (21)), the “Kp,uu,CSF Rat” value was 0.16 and the “Kp,uu,brain Rat” value is reported as 0.190. In addition, the “Kp,uu,CSF Human” value in data set [2] (*4 ref Friden et al. (21)) is on record as 0.19.

For the molecule `COc1ccc(C2CNC(=O)C2)cc1OC1CCCC1` (stereo not shown) [Rolipram], the “Kp,uu,brain Human” value in data set [2] (*3 ref Summerfield et al. (25)) is given as 1.00.

Regarding `CO/N=C(\C(=O)N[C@@H]1C(=O)N2C(C(=O)O)=C(COC(C)=O)CS[C@H]12)c1csc(N)n1` [Cefotaxime], in data set [2] (*4 ref Friden et al. (21)), the “Kp,uu,CSF Human” value is recorded as 0.17 and the “Kp,uu,brain Human” value was 0.007.

Take `COc1ccc2c3c1O[C@H]1[C@@H](O)C=C[C@H]4[C@@H](C2)N(C)CC[C@@]341` [Codeine]: in data set [1] (in vivo), the “Kp,uu,CSF Rat” value was 0.54 and the “Kp,uu,brain Rat” value is recorded as 0.89. Also, the “Kp,uu,CSF Human” value in data set [2] (in vivo) is on record as 0.79.

As for `C[C@H]1COc2c(N3CCN(C)CC3)c(F)cc3c(=O)c(C(=O)O)cn1c23` [Levofloxacin], in data set [1] (*4 ref Friden et al. (21)), the “Kp,uu,CSF Rat” value is reported as 0.19 and the “Kp,uu,brain Rat” value is recorded as 0.120. In addition, the “Kp,uu,CSF Human” value in data set [2] (*4 ref Friden et al. (21)) is reported as 0.18.

As for `O=c1n(CCCN2CCN(c3cccc(Cl)c3)CC2)nc2ccccn12` [Trazodone], in data set [1] (*3 ref Summerfield et al. (25)), the “Kp,uu,brain Rat” value is reported as 0.957. In addition, in data set [2] (*3 ref Summerfield et al. (25)), the “Kp,uu,brain Human” value was 0.93.

As to `CC(C)Nc1cccnc1N1CCN(C(=O)c2cc3cc(NS(C)(=O)=O)ccc3[nH]2)CC1` [Delavirdine], in data set [1] (*4 ref Friden et al. (21)), the “Kp,uu,CSF Rat” value is 0.051 and the “Kp,uu,brain Rat” value is listed as 0.043. Moreover, the “Kp,uu,CSF Human” value in data set [2] (*4 ref Friden et al. (21)) was 0.23.

On to `NCC1(CC(=O)O)CCCCC1` [Gabapentin], for which, in data set [1] (*4 ref Friden et al. (21)), the “Kp,uu,CSF Rat” value is listed as 0.067 and the “Kp,uu,brain Rat” value is 0.140. For the same molecule, in data set [2] (*4 ref Friden et al. (21)), the “Kp,uu,CSF Human” value is given as 0.16 and the “Kp,uu,brain Human” value is recorded as 0.16.

Consider `COc1cccc(C2(O)CCCCC2CN(C)C)c1` (stereo not shown) [Tramadol], for which, in data set [1] (in vivo), the “Kp,uu,CSF Rat” value is given as 0.71 and the “Kp,uu,brain Rat” value is reported as 1.460. Moreover, the “Kp,uu,CSF Human” value in data set [2] (in vivo) was 1.44.

Regarding `CC(C)(C)NC(=O)[C@@H]1C[C@@H]2CCCC[C@@H]2CN1C[C@@H](O)[C@H](Cc1ccccc1)NC(=O)[C@H](CC(N)=O)NC(=O)c1ccc2ccccc2n1` [Saquinavir], in data set [1] (*4 ref Friden et al. (21)), the “Kp,uu,brain Rat” value is listed as 0.055. Moreover, in data set [2] (*4 ref Friden et al. (21)), the “Kp,uu,CSF Human” value is 0.096.
